Measurements from patent US12448399B2, “Cereblon-based KRAS degrading PROTACs and uses related thereto” (Arvinas Operations, Inc., priority 2023, dated 2025).

Target: T1, KRas-G12D (Homo sapiens, UniProt P01116, G12D)
T1 construct: insert the HiBiT tag onto the N-terminus of one or more of the endogenous KRas alleles; host or cells: AsPC-1 HiBiT-KRasG12D knock-in clone (one tagged allele, two untagged KRasG12D alleles)
Experiment: HiBiT Degradation Assay (G12D), AsPC-1 HiBiT-KRasG12D cells, 24 hr
Assay type: cell-based
Conditions: for DC50: AsPC-1 cells; for Dmax: ASPC1, AsPC-1 cells, maximum degradation observed
Procedure: AsPC-1 (CRL-1682) cells were purchased from ATCC and are homozygous for the G12D mutation in KRas. AsPC-1 cells were cultured in GIBCO RPMI-1640 (ThermoFisher Scientific, catalog #61870-036, with Glutamax, no HEPES, no Na Pyruvate) supplemented with 10% FBS (ThermoFisher Scientific, catalog #2060357) and 1× Penicillin-Streptomycin (ThermoFisher Scientific, catalog #15140122, 10000 U/ml, 100×). For degradation assays, 384 well plates were used. Alamar blue was purchased from ThermoFisher Scientific (A50101) and used according to manufacturer instructions. The Nano-Glo® HiBiT Lytic Detection System and Nano-Glo® HiBiT Blotting System were purchased from Promega (#N3050 and #N2410) and used according to manufacturer instructions.
To create the AsPC-1 HiBiT-KRasG12D cell line, CRISPR-Cas9 was used to insert the HiBiT tag onto the N-terminus of one or more of the endogenous KRas alleles. See Schwinn, M. K. et al. (2018) CRISPR-mediated tagging of endogenous proteins with a luminescent peptide, ACS Chem. Biol. 13(2), 467-474. After knock-in of the tag, individual clones were isolated by single cell dilution and screened for HiBiT insertion by PCR. A clone was identified that contained the desired HiBiT-KRasG12D sequence at one allele while the remaining two KRasG12D alleles were untagged. This clone was used in further studies.
AsPC-1 HiBiT-KRasG12D cells were plated at 9000 or 15,000 cells/well in a 384 well plate (Corning #3770). Compounds of the present disclosure and positive controls were diluted in the appropriate cell media and applied to the plated cells resulting in a final concentration titration of 10 μM to […] in 0.5% DMSO. Gambogic acid was used as a positive control for cytotoxicity and titrated from 10 μM to 78 nM. All assays were performed in triplicate. Cells were treated with compounds for 24 hr at 37° C. in an incubator containing 5% CO2. Following treatment, alamar blue was used to determine if any compounds led to a loss in cell viability after 24 hr. The 10× alamar blue reagent was added to a final concentration of 1× as recommended by the manufacturer and cells were returned to the incubator for 4 hr. Plates were then allowed to equilibrate to RT and fluorescence was measured using a Perkin-Elmer EnVision. After completion of the fluorescence read, the liquid from each well was removed and the cells were washed with PBS. The Nano-Glo® HiBiT detection reagent was prepared according to the manufacturer's instructions and added to each well after the PBS wash was removed. Following incubation at room temperature for 45 min, the luminescence was read using the ultra-sensitive luminescence aperture on the Envision instrument.
Fluorescence values from the alamar blue treatment were normalized to the DMSO-only control for each compound titration. HiBiT luminescence was normalized to the DMSO-only control and the fractional HiBiT signal was plotted versus the log of the PROTAC concentration and fit to a 4-parameter dose-response model to obtain the concentration of the compound that leads to half maximal degradation (DC50) as well as the maximum degradation observed (Dmax, conventionally expressed as a percentage of control).

T1 sequence (P01116 1-188 isoform P01116-2 G12D): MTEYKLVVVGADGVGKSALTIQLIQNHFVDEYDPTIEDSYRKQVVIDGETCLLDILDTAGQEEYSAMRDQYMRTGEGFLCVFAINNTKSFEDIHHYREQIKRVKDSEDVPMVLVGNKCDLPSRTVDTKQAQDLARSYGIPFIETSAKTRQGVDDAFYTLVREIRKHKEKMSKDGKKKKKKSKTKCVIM

Compound	DC50 [µM]	Dmax [%]
CCc1cccc2cc(O)cc(-c3ncc4c(N5CC6CCC(C5)N6)nc(OCCN5CCC(CN6CCN(c7ccc8c(c7)C(=O)N(C7CCC(=O)NC7=O)C8=O)CC6)CC5)nc4c3F)c12 (centres unmarked) [Compound 32]	0.25 to 1	–
CCc1cccc2cc(O)cc(-c3ncc4c(N5CC6CCC(C5)N6)nc(OCCN5CCN([C@H]6CC[C@H](Nc7ccc8c(c7)C(=O)N(C7CCC(=O)NC7=O)C8=O)CC6)CC5)nc4c3F)c12 (some centres unmarked) [Compound 33]	0.25 to 1	–
CCc1cccc2cc(O)cc(-c3ncc4c(N5CC6CCC(C5)N6)nc(OCCN5CCC(c6ccc7c(c6)C(=O)N(C6CCC(=O)NC6=O)C7=O)CC5)nc4c3F)c12 (centres unmarked) [Compound 34]	0.25 to 1	–
C#Cc1c(F)ccc2cc(O)cc(-c3ncc4c(N5CC6CCC(C5)N6)nc(OCCN5CCC(CC6CCN(c7cccc8c7CN(C7CCC(=O)NC7=O)C8=O)CC6)CC5)nc4c3F)c12 (centres unmarked) [Compound 35, 3-[4-[4-[[1-[2-[4-(3,8-diazabicyclo[3.2.1]octan-3-yl)-7-(8-ethynyl-7-fluoro-3-hydroxy-1-naphthyl)-8-fluoro-pyrido[4,3-d]pyrimidin-2-yl]oxyethyl]-4-piperidyl]methyl]-1-piperidyl]-1-oxo-isoindolin-2-yl]piperidine-2,6-dione]	0.1 to 5.25	> 70
CCc1cccc2cc(O)cc(-c3ncc4c(N5CC6CCC(C5)N6)nc(OCCN5CCN(c6ccc(C(=O)NC7CCC(=O)NC7=O)c(F)c6)CC5)nc4c3F)c12 (centres unmarked) [Compound 37]	> 1	–
CCc1cccc2cc(O)cc(-c3ncc4c(N5CC6CCC(C5)N6)nc(OCCN5CCC(c6ccc7c(c6)CN(C6CCC(=O)NC6=O)C7=O)CC5)nc4c3F)c12 (centres unmarked) [Compound 38]	0.1 to 5.25	–
CCc1cccc2cc(O)cc(-c3ncc4c(N5CC6CCC(C5)N6)nc(OCCN5CCN(c6ccc7c(c6)CN(C6CCC(=O)NC6=O)C7=O)CC5)nc4c3F)c12 (centres unmarked) [Compound 39]	0.25 to 1	≤ 25
CCc1cccc2cc(O)cc(-c3ncc4c(N5CC6CCC(C5)N6)nc(OCCN5CCN(c6ccc7c(c6)C(=O)N(C6CCC(=O)NC6=O)C7=O)CC5)nc4c3F)c12 (centres unmarked) [Compound 40]	> 1	≤ 25
CCc1cccc2cc(O)cc(-c3ncc4c(N5CC6CCC(C5)N6C)nc(OCCN5CCC(CC6CCN(CC7CCN(c8cccc9c8CN(C8CCC(=O)NC8=O)C9=O)CC7)CC6)CC5)nc4c3F)c12 (centres unmarked) [Compound 42, 3-[4-[4-[[4-[[1-[2-[7-(8-ethyl-3-hydroxy-1-naphthyl)-8-fluoro-4-(8-methyl-3,8-diazabicyclo[3.2.1]octan-3-yl)pyrido[4,3-d]pyrimidin-2-yl]oxyethyl]-4-piperidyl]methyl]-1-piperidyl]methyl]-1-piperidyl]-1-oxo-isoindolin-2-yl] piperidine-2,6-dione]	> 1	–
C#Cc1c(F)ccc2cc(O)cc(-c3ncc4c(N5CC6CCC(C5)N6)nc(OCCN5CCC(CC6CCN(CC7CCN(c8cccc9c8CN(C8CCC(=O)NC8=O)C9=O)CC7)CC6)CC5)nc4c3F)c12 (centres unmarked) [Compound 43, 3-[4-[4-[[4-[[1-[2-[4-(3,8-diazabicyclo[3.2.1]octan-3-yl)-7-(8-ethynyl-7-fluoro-3-hydroxy-1-naphthyl)-8-fluoro-pyrido[4,3-d]pyrimidin-2-yl]oxyethyl]-4-piperidyl]methyl]-1-piperidyl]methyl]-1-piperidyl]-1-oxo-isoindolin-2-yl] piperidine-2,6-dione]	< 5.1	> 70
CCc1cccc2cc(O)cc(-c3nc(N4CC5CCC(C4)N5)c4cnc(OCCN5CCC(CC6CCN(CC7CCN(c8cccc9c8CN(C8(C)CCC(=O)NC8=O)C9=O)CC7)CC6)CC5)nc4c3F)c12 (centres unmarked) [Compound 44]	> 1	–
CCc1cccc2cc(O)cc(-c3ncc4c(N5CC6CCC(C5)N6)nc(OCCN5CCC(CC6CCN(c7cccc8c7CN(C7CCC(=O)N(C)C7=O)C8=O)CC6)CC5)nc4c3F)c12 (centres unmarked) [Compound 45]	0.25 to 1	–
CCc1cccc2cc(O)cc(-c3ncc4c(N5CC6CCC(C5)N6)nc(OCCN5CCC(CC6CCN(CC7CCN(c8cccc9c8CN(C8CCC(=O)N(C)C8=O)C9=O)CC7)CC6)CC5)nc4c3F)c12 (centres unmarked) [Compound 46]	> 1	–
CCc1cccc2cc(O)cc(-c3ncc4c(N5CC6CCC(C5)N6C)nc(OC[C@@]56CCCN5[C@H](COC(=O)N5CCN(c7ccc8c(c7)CN(C7CCC(=O)NC7=O)C8=O)CC5)CC6)nc4c3F)c12 (stereo partly drawn) [Compound 47, [(3S,8S)-8-[[7-(8-ethyl-3-hydroxy-1-naphthyl)-8-fluoro-4-(8-methyl-3,8-diazabicyclo[3.2.1]octan-3-yl)pyrido[4,3-d]pyrimidin-2-yl]oxymethyl]-1,2,3,5,6,7-hexahydropyrrolizin-3-yl]methyl4-[2-(2,6-dioxo-3-piperidyl)-1-oxo-isoindolin-5-yl]piperazine-1-carboxylate]	0.25 to 1	≤ 25
CCc1cccc2cc(O)cc(-c3ncc4c(N5CC6CCC(C5)N6C)nc(OC[C@]56CCCN5[C@@H](COC(=O)N5CCN(c7ccc8c(c7)CN(C7CCC(=O)NC7=O)C8=O)CC5)CC6)nc4c3F)c12 (stereo partly drawn) [Compound 48, [(3R,8R)-8-[[7-(8-ethyl-3-hydroxy-1-naphthyl)-8-fluoro-4-(8-methyl-3,8-diazabicyclo[3.2.1]octan-3-yl)pyrido[4,3-d]pyrimidin-2-yl]oxymethyl]-1,2,3,5,6,7-hexahydropyrrolizin-3-yl]methyl4-[2-(2,6-dioxo-3-piperidyl)-1-oxo-isoindolin-5-yl]piperazine-1-carboxylate]	> 1	–
CCc1cccc2cc(O)cc(-c3ncc4c(N5CC6CCC(C5)N6C)nc(OC[C@@]56CCCN5[C@H](COC(=O)N5CCN(c7cccc8c7CN(C7CCC(=O)NC7=O)C8=O)CC5)CC6)nc4c3F)c12 (stereo partly drawn) [Compound 49, [(3S,8S)-8-[[7-(8-ethyl-3-hydroxy-1-naphthyl)-8-fluoro-4-(8-methyl-3,8-diazabicyclo[3.2.1]octan-3-yl)pyrido[4,3-d]pyrimidin-2-yl]oxymethyl]-1,2,3,5,6,7-hexahydropyrrolizin-3-yl]methyl 4-[2-(2,6-dioxo-3-piperidyl)-1-oxo-isoindolin-4-yl]piperazine-1-carboxylate]	> 1	–
CCc1cccc2cc(O)cc(-c3ncc4c(N5CC6CCC(C5)N6)nc(OC[C@@]56CCCN5[C@H](COC(=O)N5CCN(c7ccc8c(c7)CN(C7CCC(=O)N(C)C7=O)C8=O)CC5)CC6)nc4c3F)c12 (stereo partly drawn) [Compound 50, [(3S,8S)-8-[[4-(3,8-diazabicyclo[3.2.1]octan-3-yl)-7-(8-ethyl-3-hydroxy-1-naphthyl)-8-fluoro-pyrido[4,3-d]pyrimidin-2-yl]oxymethyl]-1,2,3,5,6,7-hexahydropyrrolizin-3-yl]methyl4-[2-(1-methyl-2,6-dioxo-3-piperidyl)-1-oxo-isoindolin-5-yl]piperazine-1-carboxylate]	< 5.1	≤ 25
CCc1cccc2cc(O)cc(-c3ncc4c(N5CC6CCC(C5)N6C)nc(OC[C@]56CCCN5[C@@H](COC(=O)N5CCN(c7cccc8c7CN(C7CCC(=O)NC7=O)C8=O)CC5)CC6)nc4c3F)c12 (stereo partly drawn) [Compound 51, [(3R,8R)-8-[[7-(8-ethyl-3-hydroxy-1-naphthyl)-8-fluoro-4-(8-methyl-3,8-diazabicyclo[3.2.1]octan-3-yl)pyrido[4,3-d]pyrimidin-2-yl]oxymethyl]-1,2,3,5,6,7-hexahydropyrrolizin-3-yl]methyl4-[2-(2,6-dioxo-3-piperidyl)-1-oxo-isoindolin-4-yl]piperazine-1-carboxylate]	> 1	–
CCc1cccc2cc(O)cc(-c3ncc4c(N5CC6CCC(C5)N6)nc(OC[C@@]56CCCN5[C@H](COC(=O)N5CCN(c7cccc8c7CN(C7CCC(=O)N(C)C7=O)C8=O)CC5)CC6)nc4c3F)c12 (stereo partly drawn) [Compound 52, [(3S,8S)-8-[[4-(3,8-diazabicyclo[3.2.1]octan-3-yl)-7-(8-ethyl-3-hydroxy-1-naphthyl)-8-fluoro-pyrido[4,3-d]pyrimidin-2-yl]oxymethyl]-1,2,3,5,6,7-hexahydropyrrolizin-3-yl]methyl 4-[2-(1-methyl-2,6-dioxo-3-piperidyl)-1-oxo-isoindolin-4-yl]piperazine-1-carboxylate]	0.25 to 1	≤ 25
